From US9326989B2, “Oleyl phosphocholine” (Max-Planck-Gesellschaft zur Foerderung der Wissenschaften …, priority 2007, dated 2016)

Columns and labels:
canine leishmaniasis = assay: dosage range (start of activity to start of toxicity) in dog; format: in vivo; settings: higher doses not tolerated, lower doses almost ineffective
[1] = renal values (creatinine) in long-term applications; format: in vivo; settings: long-term applications over several months, therapeutically effective dosages
Source text: Oleyl phosphocholine is the first alkyl phosphocholine which can be used orally and intravenously.

[2] = stability in injection or infusion solutions or tablets; format: physicochemical; settings: 30° C.
Source text: For use in veterinary medicine, it is also useful that mixtures of oleyl phosphocholine (90%) and hexadecyl phosphocholine (10%) can be used and can be made available extremely inexpensively from olive oil.

[3] = animal experiments

| SMILES | dose at which activity against canine leishmaniasis started (canine leishmaniasis) | renal values (increase in creatinine) [1] | stability [2] | therapeutic action compared to C18-PC (octadecyl) and C18:1(trans)-PC (elaidyl) [3] |
| --- | --- | --- | --- | --- |
| CCCCCCCCCCCCCCCCOP(=O)([O-])OCC[N+](C)(C)C [HePC, hexadecyl phosphocholine] | 3 mg per kg body weight per day |  |  |  |
| CCCCCCCC/C=C\CCCCCCCCOP(=O)([O-])OCC[N+](C)(C)C [OlPC, oleyl phosphocholine] |  | no deterioration in the renal values | can be guaranteed over a longer period | markedly superior |
